# According to patent US12274775B2, “Fatty acid esters as anti-Malassezia agents” (SYMRISE AG, priority 2019, dated 2025):
# Where two headings read alike, the source gives them in different places.
# Tests used:
# Test in all cases: Agar dilution test on mDixon agar, minimal inhibitory concentration (MIC)
# Assay type in all cases: cell-based
# [1] = system: M. restricta; conditions: for MIC: 336 h
# Description: (§1) The fatty acid esters and their mixtures were tested for growth inhibition against Malassezia. The following reference strains were included:
# (§2) Tests were performed on solid media using agar dilution tests. Stock solutions of test substances were prepared in mDixon-Agar (cf. Table 2). Lower test concentrations were obtained by diluting stock solutions with fresh agar.
# (§3) Preparation of liquid agar was carried out in temperated water bath. Required amounts of test substances were weighed in 130 ml of Dixon Agar and mixed with fresh Dixon-Agar to reach desired concentrations of test substances. Agar solutions with test substances were then poured into 24 well-plates. The pH value in all assays was maintained at 5.5. Preparation of test substances was done on weight per volume base. All results are expressed in parts per million (1 ppm=0.0001%).
# (§4) Briefly, Malassezia strains were cultivated on selective agar for pathogenic fungi (Merck) and overlaid with a thin layer of cold-sterilized olive oil. […] Incubation was carried out at 32° C. over a maximal duration of 14 days with regular inspection and documentation of growth status. Minimal inhibitory concentrations (MICs) were determined as the lowest concentrations of test compound without visible growth. Each experiment was repeated to confirm results.
# [2] = system: M. furfur; conditions: for MIC: Malassezia furfur
# Description: as §1, §2, §3, §4
# [3] = system: M. globosa; conditions: for MIC: Malassezia globosa
# Description: as §1, §2, §3, §4
# [4] = system: M. pachydermatis; conditions: for MIC: Malassezia pachydermatis
# Description: as §1, §2, §3, §4
# [5] = system: M. sympodialis; conditions: for MIC: 336 h
# Description: as §1, §2, §3, §4
# [6] = M. restricta CBS 7877, agar dilution, pH 5.5, 32° C., up to 14 days
# [7] = M. furfur CBS 1878, agar dilution, pH 5.5, 32° C., up to 14 days
# [8] = M. furfur CBS 7019, agar dilution, pH 5.5, 32° C., up to 14 days
# [9] = M. globosa CBS 7705, agar dilution, pH 5.5, 32° C., up to 14 days
# [10] = M. globosa CBS 7966, agar dilution, pH 5.5, 32° C., up to 14 days
# [11] = M. globosa PM1, agar dilution, pH 5.5, 32° C., up to 14 days
# [12] = M. pachydermatis 1892, agar dilution, pH 5.5, 32° C., up to 14 days
# [13] = M. pachydermatis CBS 1879, agar dilution, pH 5.5, 32° C., up to 14 days
# [14] = M. sympodialis ATCC 42132, pH 5.5, 32° C., up to 14 days
# [15] = M. sympodialis CBS 7222, pH 5.5, 32° C., up to 14 days
# [16] = M. sympodialis CBS 7979, pH 5.5, 32° C., up to 14 days
# [17] = M. sympodialis DSM 6171, pH 5.5, 32° C., up to 14 days
# [18] = M. restricta CBS 7877, agar dilution, pH 5.5, 32° C., up to 14 days, read-out: Minimal inhibitory concentration (MIC)
# [19] = 336 h, M. globosa PM1, agar dilution, pH 5.5, 32° C., up to 14 days, read-out: Minimal inhibitory concentration (MIC)
# [20] = CBS7705, 336 h, M. globosa CBS 7705, agar dilution, pH 5.5, 32° C., up to 14 days, read-out: Minimal inhibitory concentration (MIC)
# [21] = CBS7966, 336 h, M. globosa CBS 7966, agar dilution, pH 5.5, 32° C., up to 14 days, read-out: Minimal inhibitory concentration (MIC)
# [22] = pH 5.5, M. sympodialis ATCC 42132, pH 5.5, 32° C., up to 14 days, read-out: Minimal inhibitory concentration (MIC)
# [23] = pH 5.5, M. sympodialis CBS 7222, pH 5.5, 32° C., up to 14 days, read-out: Minimal inhibitory concentration (MIC)
# [24] = pH 5.5, M. sympodialis CBS 7979, pH 5.5, 32° C., up to 14 days, read-out: Minimal inhibitory concentration (MIC)
# [25] = pH 5.5, M. sympodialis DSM 6171, pH 5.5, 32° C., up to 14 days, read-out: Minimal inhibitory concentration (MIC)
# [26] = CBS1878, 336 h, M. furfur CBS 1878, agar dilution, pH 5.5, 32° C., up to 14 days, read-out: Minimal inhibitory concentration (MIC)
# [27] = CBS7019, 336 h, M. furfur CBS 7019, agar dilution, pH 5.5, 32° C., up to 14 days, read-out: Minimal inhibitory concentration (MIC)
# [28] = 336 h, M. pachydermatis 1892, agar dilution, pH 5.5, 32° C., up to 14 days, read-out: Minimal inhibitory concentration (MIC)
# [29] = CBS1879, 336 h, M. pachydermatis CBS 1879, agar dilution, pH 5.5, 32° C., up to 14 days, read-out: Minimal inhibitory concentration (MIC)
# [30] = 336 h, pH 5.5, read-out: Minimal inhibitory concentration (MIC)
Compound,"Minimal inhibitory concentration (MIC) [3, 10] [ppm]","Minimal inhibitory concentration (MIC) [3, 11] [ppm]","MIC [1, 18] [µg/mL]","MIC [3, 19] [µg/mL]","MIC [3, 20] [µg/mL]","MIC [3, 21] [µg/mL]","MIC [5, 22] [µg/mL]","MIC [5, 23] [µg/mL]","MIC [5, 24] [µg/mL]","MIC [5, 25] [µg/mL]",further results
C=CCCCCCCCCC(=O)OCC(COC(=O)CCCCCCCCC=C)OC(=O)CCCCCCCCC=C [Glyceryl triundecylenoate],>20000,8000,–,–,–,–,–,–,–,–,"Minimal inhibitory concentration (MIC) [1, 6]: 4000 ppm; Minimal inhibitory concentration (MIC) [2, 7]: 10000 ppm; Minimal inhibitory concentration (MIC) [2, 8]: >20000 ppm; Minimal inhibitory concentration (MIC) [3, 9]: 8000 ppm; Minimal inhibitory concentration (MIC) [4, 12]: 4000 ppm; Minimal inhibitory concentration (MIC) [4, 13]: 4000 ppm"
PEG9-caprylate,2000,2000,–,–,–,–,–,–,–,–,"Minimal inhibitory concentration (MIC) [1, 6]: 2000 ppm; Minimal inhibitory concentration (MIC) [2, 7]: 20000 ppm; Minimal inhibitory concentration (MIC) [2, 8]: 10000 ppm; Minimal inhibitory concentration (MIC) [5, 14]: 10000 ppm; Minimal inhibitory concentration (MIC) [5, 15]: 10000 ppm; Minimal inhibitory concentration (MIC) [5, 16]: 8000 ppm; Minimal inhibitory concentration (MIC) [5, 17]: 8000 ppm; Minimal inhibitory concentration (MIC) [4, 12]: 4000 ppm; Minimal inhibitory concentration (MIC) [4, 13]: 2000 ppm"
"CCCCCCCCCCC(O)CO (stereo not drawn) [1,2-Dodecandiol]",–,–,8000,40000,40000,40000,2000,4000,4000,4000,–
CCCCCCCC(=O)OCC [Ethyl caprylate],–,–,4000,1000,–,1000,1000,1000,1000,1000,"MIC [2, 26]: > 20000 µg/mL; MIC [2, 27]: 10000 µg/mL; MIC [4, 28]: 1000 µg/mL; MIC [4, 29]: < 500 µg/mL"
"C=CCCCCCCCCC(=O)O [Undecylenic acid, 10-undecylenic acid]",–,–,–,–,–,–,–,–,–,–,"MIC ([1]; pH 5.5, read-out: Minimal inhibitory concentration (MIC)): 500 µg/mL; MIC ([2]; CBS1878, 336 h, pH 5.5, read-out: Minimal inhibitory concentration (MIC)): 2000 µg/mL; MIC ([2]; CBS7019, 336 h, pH 5.5, read-out: Minimal inhibitory concentration (MIC)): > 2000 µg/mL; MIC [3, 30]: 677 µg/mL; MIC ([3]; CBS7705, 336 h, pH 5.5, read-out: Minimal inhibitory concentration (MIC)): 330 µg/mL; MIC ([3]; CBS7966, 336 h, pH 5.5, read-out: Minimal inhibitory concentration (MIC)): 2000 µg/mL; MIC ([5]; pH 5.5, read-out: Minimal inhibitory concentration (MIC), M. sympodialis ATCC 42132, pH 5.5, 32° C., up to 14 days): 100 µg/mL; MIC ([5]; pH 5.5, read-out: Minimal inhibitory concentration (MIC), M. sympodialis CBS 7222, pH 5.5, 32° C., up to 14 days): 100 µg/mL; MIC ([5]; pH 5.5, read-out: Minimal inhibitory concentration (MIC), M. sympodialis CBS 7979, pH 5.5, 32° C., up to 14 days): 200 µg/mL; MIC ([5]; pH 5.5, read-out: Minimal inhibitory concentration (MIC), M. sympodialis DSM 6171, pH 5.5, 32° C., up to 14 days): 100 µg/mL; MIC [4, 30]: 500 µg/mL; MIC ([4]; CBS1879, 336 h, pH 5.5, read-out: Minimal inhibitory concentration (MIC)): 1000 µg/mL"
"CCCCC(O)CO (stereo not drawn) [1,2-Hexandiol]",–,–,5000,5000,10000,5000,10000,10000,10000,10000,–
"OCCCO [1,3-Propandiol]",40000,33000,–,–,–,–,–,–,–,–,"Minimal inhibitory concentration (MIC) [1, 6]: 33000 ppm; Minimal inhibitory concentration (MIC) [3, 9]: 80000 ppm; Minimal inhibitory concentration (MIC) [5, 14]: 40000 ppm; Minimal inhibitory concentration (MIC) [5, 15]: 33000 ppm; Minimal inhibitory concentration (MIC) [5, 16]: 80000 ppm; Minimal inhibitory concentration (MIC) [5, 17]: 80000 ppm"
C=CCCCCCCCCC(=O)OCC [Ethyl undecylenoate],–,–,1000,8000,4000,10000,200,200,200,200,"MIC [2, 26]: 20000 µg/mL; MIC [2, 27]: > 20000 µg/mL; MIC [4, 28]: 500 µg/mL; MIC [4, 29]: 2000 µg/mL"
"CCCC(O)CO (stereo not drawn) [1,2-Pentandiol]",–,–,10000,10000,20000,10000,20000,20000,20000,20000,–
C=CCCCCCCCCC(=O)OCC(O)CO (stereo not drawn) [Glyceryl monoundecylenoate],–,–,1000,2000,1000,2000,500,500,500,200,"MIC [2, 26]: 8000 µg/mL; MIC [2, 27]: 8000 µg/mL; MIC [4, 28]: 4000 µg/mL; MIC [4, 29]: 8000 µg/mL"
CCCCCCCC(=O)OCC(O)CO (stereo not drawn) [Glyceryl monocaprylate],–,–,330,500 to 1000,1000,1000,1000,1000,1000,2000,"MIC [2, 26]: 4000 µg/mL; MIC [2, 27]: 4000 µg/mL; MIC [4, 28]: 500 µg/mL; MIC [4, 29]: 330 µg/mL"
C=CCCCCCCCCC(=O)OCC(CO)OC(=O)CCCCCCCCC=C (stereo not drawn) [3-Hydroxypropyl diundecylenoate],10000,10000,–,–,–,–,–,–,–,–,"Minimal inhibitory concentration (MIC) [2, 7]: >20000 ppm; Minimal inhibitory concentration (MIC) [2, 8]: >20000 ppm"
"CCCCCCC(O)CO (stereo not drawn) [1,2-Octandiol]",–,–,1000,2000,4000,2000,2000,2000,2000,2000,–
"CCCCCCCCC(O)CO (stereo not drawn) [1,2-Decandiol]",–,–,1000,8000,8000,8000,1000,1000,2000,4000,–
PEG-9-undecylenoate,10000,8000,–,–,–,–,–,–,–,–,"Minimal inhibitory concentration (MIC) [1, 6]: 4000 ppm; Minimal inhibitory concentration (MIC) [2, 7]: 20000 ppm; Minimal inhibitory concentration (MIC) [2, 8]: >20000 ppm; Minimal inhibitory concentration (MIC) [4, 12]: 8000 ppm; Minimal inhibitory concentration (MIC) [4, 13]: 8000 ppm"
"CCCCCCCC(=O)O [Caprylic acid, caprylic acid]",–,–,200,500,–,1000,330,330,1000,500,"MIC [2, 26]: 1000 µg/mL; MIC [2, 27]: 2000 µg/mL; MIC [4, 28]: 200 µg/mL; MIC [4, 29]: 100 µg/mL"
CCCCCCCC(=O)OCC(CO)OC(=O)CCCCCCC (stereo not drawn) [3-Hydroxypropyl dicaprylate],8000,8000,–,–,–,–,–,–,–,–,"Minimal inhibitory concentration (MIC) [2, 7]: >20000 ppm; Minimal inhibitory concentration (MIC) [2, 8]: 20000 ppm; Minimal inhibitory concentration (MIC) [5, 14]: 4000 ppm; Minimal inhibitory concentration (MIC) [5, 15]: 20000 ppm; Minimal inhibitory concentration (MIC) [5, 16]: 20000 ppm; Minimal inhibitory concentration (MIC) [5, 17]: 20000 ppm"
